Test results: patent publication US20240241137A1, “METHOD FOR SELECTING A DRUG CANDIDATE FOR TREATING OR PREVENTING OR DELAYING THE ONSET OR PROGRESSION OF AN AMYLOIDOGENIC DISEASE” (NATIONAL HEALTH RESEARCH INSTITUTES, priority 2022, published 2024)
“Also recorded” adds a separate entry of the source. Structures can show the parent of a compound that is named as a salt. Each block holds one compound with its values, some of them ahead of it.

What was measured:
[1] = tested on: SH—SY5Y neuronal cells; assay: Cell viability (CCK8) of Aβ42-treated neuronal cells; conditions: for rescue effect of Aβ42-induced cell apoptosis: co-treatment with low dose (10 nM) LPS, bait 1, 10, 50, 100 μM, versus LPS alone; for rescue of Aβ42-induced cell death by small baits alone: without co-treatment with LPS
Procedure: Cell viability: Neuronal cells were maintained in MEM (GIBCO® 51200-038) supplemented with 10% FBS, 1×MEM NEAA (GIBCO® 11140-050), 1×L-glutamine (GIBCO® 25030-081), and 1×sodium pyruvate (GIBCO® 1136-070). Neuronal SH—SY5Y cells were plated at a density of 8,000 cells per well in 96-well plates and allowed to attach overnight at 37° C. in 5% CO2 humidified air. Aβ42 (100 μM), LPS (10 nM), CS (100 μM), EG (100 PM), and morin (100 μM) were then added to each medium containing 2.5% dimethyl sulfoxide and sterilized using UV light. Thereafter, the solution containing Aβ42 and LPS was mixed with CS, EG, or morin at different concentrations ranging from 1 to 100 μM and added into the plate of the SH—SY5Y cells. The medium was then replaced, and the remaining mixture was incubated for 72 h at 37° C. in 5% CO2 humidified air. Cell viability was measured using the CCK8 (SIGMA-ALDRICH® 96992) assay according to the manufacturer's protocol. Before the Aβ42 treatment of Neuronal SH—SY5Y cells, a 30 k filter was used to remove unbound LPS from the LPS-insulted Aβ42 mixture.

[2] = tested on: SH—SY5Y cells; assay: Western blot of residual Aβ42 levels (clearance of Aβ42 by neuronal cells); type: cell-based; conditions: co-treatment with low-dose LPS, 72 h
Procedure: The cell mixture samples were analyzed via 12% SDS-PAGE gel electrophoresis and transferred to a PVDF membrane. […] After hybridization with the primary antibody, the membrane was washed thrice with PBST before the addition of an HRP-conjugated secondary antibody against the primary antibody. The membrane was then washed thrice with PBST before immunoreactive bands were detected by UVP ChemStudio touch ([…] JENA®). The primary antibodies used in this study included the following: anti-Aβ (6E10, BIOLEGEND® 803001), anti-actin ([…]®), and anti-GAPDH (GTX100118). Signal intensity was analyzed using VisionWorks 9.1 and statistically analyzed using GraphPad Prism 9.

[3] = biological target: LPS-Aβ42 complex (Homo sapiens, UniProt P05067); assay: Real-time mass-sensitive measurement (QCM-D) of the non-equilibrium oscillation between LPS and Aβ42; type: binding; conditions: for effect on the oscillatory event (lifetime) of the LPS-Aβ42 complex: bait in combination with LPS, Aβ42 100 μM, baits 20 μM; for time (apparent lifetime of the non-equilibrium interaction): mass dropping from 80% to 20%
Sequence of LPS-Aβ42 complex (P05067 672-713 limits assumed, one chain of several): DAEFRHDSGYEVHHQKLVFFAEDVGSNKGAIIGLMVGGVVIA
Text: The lifetime of each sample was indicated in colored lines.
A real-time mass-sensitive measurement strategy involving quartz crystal microbalance with dissipation explorer (QCM-D) and single-channel module (Q-Sense, Biolin Scientific, Vastra Frölunda, Sweden) was used to evaluate the non-equilibrium interaction between Aβ42 and two baits (LPS and natural compounds). In addition, the steady-state circular dichroism and fluorescence spectra upon excitation of tryptophan at different temperatures were recorded to reveal the secondary structures of Aβ42 in the presence and absence of LPS. The fluorescent T jump system was utilized to confirm the adsorbing capability of LPS to Aβ42 by reading the corresponding protein dynamics. The detailed methods and materials are described as follows.
Preparation of the first bait: A solution of 0.1 mM MCL-NHS and LPS at a ratio of 1:1 was mixed in DI water. The mixture was cooled at 25° C. overnight (please refer to linker modification in the following), which spontaneously allowed the conjugation of the amine group of LPS and NHS-activated carboxylic acid of MCL. Owing to the structural complexity, it was difficult to validate the amide bond formation between MCL-NHS and LPS via NMR identification (FIG. 1). Nevertheless, the supramolecular host-guest recognition between LPS and colistin (a cyclic peptide) was used to identify the existence of MCL-modified LPS (first bait). The details of the mass-sensitive measurement are described in the next section.
Linker modification: The conjugation of the first bait (LPS) and linker (3-mercaptopanyl-n-hydroxysuccinimide ester) was mixed together for overnight reaction before anchoring on the gold sensor. The linker may be linked to one or two —NH2 groups in the core oligosaccharide part of LPS.
Real-time mass-sensitive measurement: Quartz crystal microbalance with dissipation explorer (QCM-D) and single-channel module (Q-Sense™, BIOLIN SCIENTIFIC®, Vastra Fralunda, Sweden) was used to evaluate the non-equilibrium interaction between Aβ42 and two baits (LPS and natural compounds). Prior to use, the new and reused gold sensors (a circle shape with a diameter of 1.0 cm, Q-Sense Sensors™, BIOLIN SCIENTIFIC®) were precleaned using a UV/ozone cleaner and piranha solution, which was a mixture of 30% H2O2 and concentrated H2SO4 at 1:3 (v/v). This piranha solution reacts violently with organic materials and should be handled with great care and protection. After washing of the gold sensors with LPS-free DI water, the first bait was initially inputted in a flow model at a flow rate of 0.15 mL/min under 25° C., which could be immediately anchored on a clean gold sensor. We conducted all measurements by switching between the continuous flowing model (CFM) and flowing-to-soaking model (FSM) after washing; the CFM maintained the same flow rate (0.15 mL/min), and the FSM allowed the flow velocity to slow down or completely stop. A sampling interval of 0.3 s was used to collect each frequency readout at seven overtones […], while the quartz crystal resonator of the QCN-D system settled at a fundamental resonant frequency (5 MHz). The Q-Sense system was utilized in addition to the following Sauerbrey equation to obtain the third overtone (n=3) and calculate the mass change after measurement.
where Δm is the change in the adsorbed mass of molecules; Δf is the time-responded frequency observed at the third overtone; and C is a constant that is equal to 17.7 ng/cm^2 at the resonance frequency of the quartz oscillator (5 MHz). The equation (Eq. S1) allows a direct quantitative study for mass comparison.
Operation of a real-time sensing platform: To perform the measurements, the LPS-free DI water and other solvents were allowed to continuously flow for about 1 h at 25° C. or until the baseline of two parameters (frequency and dissipation of QCM-D) reached an equilibrium state before sample operation and data collection. […]

[4] = biological target: T1, Aβ42 (Homo sapiens, UniProt P05067); assay: Circular dichroism of Aβ42 and LPS-Aβ42; conditions: Aβ42 96 μM, LPS 160 nM, 25° C.
T1 sequence (P05067 672-713 limits assumed): as the sequence (P05067 672-713 limits assumed, one chain of several) above
Procedure: Circular dichroism (CD): Approximately 300 μL of (96 μM) and mixtures of Aβ42 (96 μM) and LPS (160 nM) were loaded into a quartz cuvette of an optical length of 1 mm (110-1-40, HELLMA ANALYTICS®) and measured using a spectrometer equipped with a thermostat (Model 410, AVIV BIOMEDICAL®, Inc.) in 190-260 nm at 25° C. with a spectral resolution of 1 nm.

[5] = biological target: T1, Aβ42; assay: Fluorescent T jump protein dynamics of Aβ42 and LPS-Aβ42; conditions: two-state model analysis upon T jump
Text: A fluorescent T jump system was constructed on the basis of a previous report (Yang, C. T., Chu, L. K. Phys. Chem. Chem. Phys. 2022, 24, 11079-11085), with slight modification. The aqueous solutions were sandwiched by two quartz windows (diameter=25 mm, thickness=2 mm, #14-962, EDMUND OPTICS®) separated by a drilled Teflon spacer of a thickness of 0.8 mm. The diameter of the hole in the center was 2.0 mm. The circular infrared beam, which was used to heat up water to increase the temperature, from a continuous-wave diode laser at 1550 nm was focused with two convex lenses (f=100.0 mm; f=75.6 mm) to a diameter of 1.6 mm before entering the sample cell. […] The fluorescence was collected using a MicroSpot Focusing Objective (LMU-20X-NUV, THORLABS®, 325-500 nm) and later focused through a 200 μm pinhole by a lens (f=50.0 mm) to an optical fiber (300-1,200 nm). Thereafter, the collected fluorescence light was introduced to a photomultiplier tube and filtered using an optical filter to define the detection range at 300-445 nm. The voltage signal from the photomultiplier was amplified by a factor of 20 using a voltage pre-amplifier, and further recorded using an oscilloscope.
The photobleaching-induced fluorescence decrease should be considered in the evolution of the fluorescence intensity change of Aβ42 and LPS-A342 upon T jump. […]

Compound: chondroitin sulfate sodium [CS]
rescue effect of Aβ42-induced cell apoptosis ([1]; Aβ42 100 μM): not observed
rescue of Aβ42-induced cell death by small baits alone ([1]; Aβ42 100 μM): could not alleviate Aβ42-induced cell death
residual Aβ42 levels from the total lysate [2]: not observed; also recorded: no impact on the degradation of Aβ42
effect on the oscillatory event (lifetime) of the LPS-Aβ42 complex [3]: shortened the binding event; also recorded: shortening

Compound: Lipopolysaccharide [LPS]
cell viability ([1]; LPS of Aβ42 solution removed): less than 10%
viability of neuronal cells in medium containing Aβ42 ([1]; high dose (1000 nM) of LPS, Aβ42 100 μM): 100%
effect on secondary structure of Aβ42 (CD spectra) [4]: does not initiate the unfolding of the secondary structure of Aβ42
effect on thermally induced protein dynamics of Aβ42 [5]: retarded the upward response
lifetime of mass oscillation ([3]; LPS anchored on sensor, Aβ42, FSM, no bait): less than 30 min

Compound: O=C(OC[C@H]1O[C@@H](OC(=O)c2cc(O)c(O)c(OC(=O)c3cc(O)c(O)c(O)c3)c2)[C@H](OC(=O)c2cc(O)c(O)c(OC(=O)c3cc(O)c(O)c(O)c3)c2)[C@@H](OC(=O)c2cc(O)c(O)c(OC(=O)c3cc(O)c(O)c(O)c3)c2)[C@@H]1OC(=O)c1cc(O)c(O)c(OC(=O)c2cc(O)c(O)c(O)c2)c1)c1cc(O)c(O)c(OC(=O)c2cc(O)c(O)c(O)c2)c1 [tannic acid]
effect on the oscillatory event (lifetime) of the LPS-Aβ42 complex [3]: did not perturb the oscillatory event

Compound: O=C(O[C@@H]1Cc2c(O)cc(O)cc2O[C@@H]1c1cc(O)c(O)c(O)c1)c1cc(O)c(O)c(O)c1 [EG, epigallocatechin gallate]
rescue of Aβ42-induced cell death by small baits alone ([1]; Aβ42 100 μM): could not alleviate Aβ42-induced cell death
residual Aβ42 levels from the total lysate [2]: not observed; also recorded: no impact on the degradation of Aβ42
effect on the oscillatory event (lifetime) of the LPS-Aβ42 complex [3]: did not perturb the oscillatory event

Compound: CCN(CC)CCCC(C)Nc1c2ccc(Cl)cc2nc2ccc(OC)cc12 (centres unmarked) [quinacrine dihydrochloride]
effect on the oscillatory event (lifetime) of the LPS-Aβ42 complex [3]: did not perturb the oscillatory event

Continued, in another order:

ln(γ) ([3]; [morin] 20 nM): 2.75
Δt = tw/morin − tw/o morin ([3]; [morin] 20 nM): 63 s
γ (lifetime increment percentage) ([3]; [morin] 20 nM): 15.7%
time (apparent lifetime of the non-equilibrium interaction) ([3]; [morin] 20 nM): 465 s
ln(γ) ([3]; [morin] 50 nM): 3.47
Δt = tw/morin − tw/o morin ([3]; [morin] 50 nM): 129 s
γ (lifetime increment percentage) ([3]; [morin] 50 nM): 32.1%
time (apparent lifetime of the non-equilibrium interaction) ([3]; [morin] 50 nM): 531 s
ln(γ) ([3]; [morin] 100 nM): 4.22
Δt = tw/morin − tw/o morin ([3]; [morin] 100 nM): 275 s
γ (lifetime increment percentage) ([3]; [morin] 100 nM): 68.4%
time (apparent lifetime of the non-equilibrium interaction) ([3]; [morin] 100 nM): 677 s
ln(γ) ([3]; [morin] 200 nM): 4.42
Δt = tw/morin − tw/o morin ([3]; [morin] 200 nM): 335 s
γ (lifetime increment percentage) ([3]; [morin] 200 nM): 83.3%
time (apparent lifetime of the non-equilibrium interaction) ([3]; [morin] 200 nM): 737 s
n, power to which bait concentration is taken (slope of ln(γ) versus ln([morin])) ([3]; linear regression of Table S1 data): 0.76±0.10
Compound: O=c1c(O)c(-c2ccc(O)cc2O)oc2cc(O)cc(O)c12 [morin]
rescue effect of Aβ42-induced cell apoptosis ([1]; Aβ42 100 μM): in a dose-dependent manner; also recorded: could be observed
rescue of Aβ42-induced cell death by small baits alone ([1]; Aβ42 100 μM): could not alleviate Aβ42-induced cell death
residual Aβ42 levels from the total lysate [2]: significantly decreased; also recorded: dose-dependent depletion of Aβ42
effect on the oscillatory event (lifetime) of the LPS-Aβ42 complex [3]: extended; also recorded: significant prolongation; also recorded: significant time extension; also recorded: prolonged in a dose-dependent manner

effect on the oscillatory event (lifetime) of the LPS-Aβ42 complex [3]: did not perturb the oscillatory event
Compound: COc1cc(/C=C/C(=O)CC(=O)/C=C/c2ccc(O)c(OC)c2)ccc1O [curcumin]

effect on the oscillatory event (lifetime) of the LPS-Aβ42 complex [3]: did not perturb the oscillatory event
Compound: O=c1c(O)c(-c2cc(O)c(O)c(O)c2)oc2cc(O)cc(O)c12 [myricetin]

effect on the oscillatory event (lifetime) of the LPS-Aβ42 complex [3]: did not perturb the oscillatory event
Compound: O=C(/C=C/c1ccc(O)c(O)c1)O[C@H](Cc1ccc(O)c(O)c1)C(=O)O [rosmarinic acid]
